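Assay format: 96-well plates, 48-hour exposure. GI50 = concentration required for 50% inhibition of growth.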 The source made the active and inactive calls. Cut-off read from the data, not from the text of the source: active = GI50 up to about 1.1 µM and inactive = higher.
What was measured:
Experiment in all cases: DTP human tumour cell line panel, 48 h
CAKI-1 = system: CAKI-1
MOLT-4 = system: MOLT-4
HL-60 = system: HL-60
NCI-H226 = system: NCI-H226
NCI-H460 = system: NCI-H460
UACC-257 = system: UACC-257
K562 = system: K562
SK-MEL-5 = system: SK-MEL-5
NCI-H522 = system: NCI-H522
SF-295 = system: SF-295
HCT-15 = system: HCT-15
UO-31 = system: UO-31
OVCAR-5 = system: OVCAR-5
A498 = system: A498
DU-145 = system: DU-145
UACC-62 = system: UACC-62
KM12 = system: KM12
HOP-92 = system: HOP-92
NCI/ADR-RES = system: NCI/ADR-RES
M14 = system: M14

Structure (SMILES) | GI50 (CAKI-1) | GI50 (MOLT-4) | GI50 (HL-60) | GI50 (NCI-H226) | GI50 (NCI-H460) | GI50 (UACC-257) | GI50 (K562) | GI50 (SK-MEL-5) | GI50 (NCI-H522) | GI50 (SF-295) | GI50 (HCT-15) | GI50 (UO-31) | GI50 (OVCAR-5) | GI50 (A498) | GI50 (DU-145) | GI50 (UACC-62) | GI50 (KM12) | GI50 (HOP-92) | GI50 (NCI/ADR-RES) | GI50 (M14)
CSc1nc2cc(S(=O)(=O)N3CCCCC3)ccc2s1 | > 100 µM (inactive) | > 100 µM (inactive) | > 100 µM (inactive) | > 100 µM (inactive) | > 100 µM (inactive) | 48.3 µM (inactive) | > 100 µM (inactive) | > 100 µM (inactive) | 79.1 µM (inactive) | 28 µM (inactive) | > 100 µM | > 100 µM (inactive) | > 100 µM (inactive) | > 100 µM (inactive) | > 100 µM (inactive) | > 100 µM (inactive) | > 100 µM (inactive) | > 100 µM (inactive) | > 100 µM (inactive) | > 100 µM (inactive)
CN(C)CCCNC(=O)c1cc(NC(=O)c2cc(NS(=O)(=O)c3ccc4c(c3)C(=O)c3ccccc3C4=O)cn2C)cn1C | > 100 µM (inactive) | 24 µM (inactive) | 97.9 µM (inactive) | > 100 µM (inactive) | 45 µM (inactive) | 45.8 µM (inactive) | 52.6 µM (inactive) | 29.2 µM (inactive) | 93.5 µM (inactive) | > 100 µM (inactive) | > 100 µM | > 100 µM (inactive) | > 100 µM (inactive) | > 100 µM (inactive) | > 100 µM (inactive) | 89.9 µM (inactive) | 80.7 µM (inactive) | > 100 µM (inactive) | > 100 µM (inactive) | > 100 µM (inactive)
C[N+]1(C(CO)Cc2c[nH]c3ccccc23)Cc2ccccc2C1 (stereo not given) | > 100 µM (inactive) | > 100 µM (inactive) | > 100 µM (inactive) | > 100 µM (inactive) | > 100 µM (inactive) | 44 µM (inactive) | 89.7 µM (inactive) | 32.6 µM (inactive) | 49.3 µM (inactive) | > 100 µM (inactive) | > 100 µM | > 100 µM (inactive) | 89.3 µM (inactive) | 66.5 µM (inactive) | > 100 µM (inactive) | > 100 µM (inactive) | > 100 µM (inactive) | 92.5 µM (inactive) | > 100 µM (inactive) | 35.8 µM (inactive)
O=C1/C(=C/c2ccccc2)CCc2ccc([N+](=O)[O-])cc21 | > 100 µM (inactive) | 10.8 µM (inactive) | 1.86 µM (inactive) | > 100 µM (inactive) | > 100 µM (inactive) | 39.5 µM (inactive) | 15.9 µM (inactive) | 25.2 µM (inactive) | 3.31 µM (inactive) | 33 µM (inactive) | 39.7 µM | > 82.8 µM (inactive) | > 100 µM (inactive) | > 78.7 µM (inactive) | > 72.3 µM (inactive) | 31 µM (inactive) | 42.3 µM (inactive) | 81.5 µM (inactive) | 43.6 µM (inactive) | 48.2 µM (inactive)
CC(=O)OCC12C(=O)C[C@@H](C)C3(CC(c4ccoc4)OC3=O)C1CCC(OC(C)=O)C21CO1 (stereo not given in full) | > 100 µM (inactive) | > 100 µM (inactive) | > 100 µM (inactive) | > 100 µM (inactive) | > 100 µM (inactive) | > 100 µM (inactive) | > 100 µM (inactive) | > 100 µM (inactive) | > 100 µM (inactive) | > 100 µM (inactive) | > 100 µM | > 100 µM (inactive) | > 100 µM (inactive) | > 100 µM (inactive) | > 100 µM (inactive) | > 100 µM (inactive) | > 100 µM (inactive) | > 100 µM (inactive) | > 100 µM (inactive) | > 100 µM (inactive)
CC1CC(C(=O)OC2OC(COC3OC(CO)C(OC4OC(C)C(O)C(O)C4O)C(O)C3O)C(O)C(O)C2O)C2CCC3(C)C(=CCC4(C)C3CCC3C(C)(CO)C(O)C(O)CC34C)C2C1C (stereo not given) | > 100 µM (inactive) | 19.6 µM (inactive) | 21.6 µM (inactive) | 32.5 µM (inactive) | 20.7 µM (inactive) | > 10 µM (inactive) | 34.3 µM (inactive) | 18.7 µM (inactive) | 13.7 µM (inactive) | 28.8 µM (inactive) | > 100 µM | > 100 µM (inactive) | 26.7 µM (inactive) | > 10 µM (inactive) | 33.5 µM (inactive) | 17.7 µM (inactive) | 17.9 µM (inactive) | 17.4 µM (inactive) | > 100 µM (inactive) | 35.7 µM (inactive)
CCOC(=O)C1(C#N)C(C#N)(C#N)C1(C#N)C#N | > 100 µM (inactive) | > 100 µM (inactive) | > 100 µM (inactive) | > 100 µM (inactive) | > 100 µM (inactive) | > 100 µM (inactive) | > 100 µM (inactive) | > 100 µM (inactive) | > 100 µM (inactive) | > 100 µM (inactive) | > 100 µM | > 100 µM (inactive) | > 100 µM (inactive) | > 100 µM (inactive) | > 100 µM (inactive) | > 100 µM (inactive) | > 100 µM (inactive) | > 100 µM (inactive) | > 100 µM (inactive) | > 100 µM (inactive)
OCc1ccc2c(c1)CC1(Cc3ccc(/C=N/O)cc3C1)C2 (stereo not given) | 7.8 µM (inactive) | 4.73 µM (inactive) | 0.41 µM (active) | 10 µM (inactive) | 3.3 µM (inactive) | 2.19 µM (inactive) | 1.8 µM (inactive) | 1.34 µM (inactive) | 2.08 µM (inactive) | 2.43 µM (inactive) | 1.16 µM | 7.08 µM (inactive) | 23.7 µM (inactive) | 27.7 µM (inactive) | 5.24 µM (inactive) | 3.24 µM (inactive) | 1.29 µM (inactive) | 7.74 µM (inactive) | 3.32 µM (inactive) | 1.99 µM (inactive)
CC1=NNC(=O)C1C1CC(c2c[nH]c3ccccc23)=NNC1=S (stereo not given) | > 100 µM (inactive) | 37.2 µM (inactive) | 68.4 µM (inactive) | > 100 µM (inactive) | 68.5 µM (inactive) | > 100 µM (inactive) | 48.5 µM (inactive) | > 100 µM (inactive) | > 100 µM (inactive) | > 100 µM (inactive) | 39.7 µM | 30.6 µM (inactive) | > 100 µM (inactive) | > 100 µM (inactive) | > 100 µM (inactive) | > 100 µM (inactive) | 29.6 µM (inactive) | > 100 µM (inactive) | > 100 µM (inactive) | > 100 µM (inactive)
CC1(C)[C@@H](Cn2cnc3c(N)ncnc32)CC[C@@]1(C)CO | > 100 µM (inactive) | 11.9 µM (inactive) | 40.1 µM (inactive) | 40.3 µM (inactive) | > 100 µM (inactive) | 67.1 µM (inactive) | 17.3 µM (inactive) | 60.7 µM (inactive) | 41.3 µM (inactive) | 38.8 µM (inactive) | 51.1 µM | 81.1 µM (inactive) | 83.4 µM (inactive) | > 100 µM (inactive) | > 100 µM (inactive) | 32 µM (inactive) | 27.4 µM (inactive) | > 100 µM (inactive) | 84.5 µM (inactive) | > 100 µM (inactive)
COC1(OC)C[C@H](C)[C@@]23O[C@]24C2=CC(=O)C=CC2=N[C@H]3C#C/C=C\C#C[C@]14O | 0.284 µM (active) | 0.0187 µM (active) | 0.0431 µM (active) | 0.7 µM (active) | 0.344 µM (active) | 1.49 µM (inactive) | 0.359 µM (active) | 0.323 µM (active) | 0.0469 µM (active) | 1.64 µM (inactive) | 0.432 µM | 0.355 µM (active) | 0.39 µM (active) | 0.91 µM (active) | 1.04 µM (active) | 1.19 µM (inactive) | 0.474 µM (active) | 0.532 µM (active) | 1.59 µM (inactive) | 0.53 µM (active)

From ChEMBL document CHEMBL1201862, “PubChem BioAssay data set” (2004)
